{"source": "ChEMBL document CHEMBL1136867", "about": "“2009 Edward E Smissman Award. Pharmaceutical \"gold\" from neurostabilizing agents: topiramate and successor molecules” (J Med Chem, 2009)", "biological_target": "Carbonic anhydrase 2 (Homo sapiens, UniProt P00918)", "experiment": "Inhibition of human carbonic anhydrase 2", "data": [{"smiles": "NS(=O)(=O)NCc1csc2ccccc12", "values": [{"measurement": "IC50", "result": 110, "unit": "µM"}]}]}
